Experimental data published in patent EP0529395A2, “Benzamide multidrug resistance reversing agents” (Bristol-Myers Squibb Company, priority 1991, dated 1993).
Starred links: 1 amine or outer side, 2 acyl side, 3 side chain; linkers in the order of their positions; H or OH if unused. Positions of bridges follow the written chain, without caps; N, C: chain ends. Non-standard residues stand in square brackets, D forms with d. Residues, ends and D or L forms follow the SMILES beside them. Chains are numbered I, II in the order given. Actinocin(9to1) = Cc1c2oc3c(C)ccc(C(=O)[*:1])c3nc-2c(C(=O)[*:2])c(N)c1=O; NMeV = CN[C@H](C(=O)O)C(C)C; Sar = CNCC(=O)O

Experiments:
Type in all cases: cell-based, human
[1] = test system: HCT-116/VM46; experiment: Cytotoxic assay, MDR reversing effect with actinomycin D in resistant colon carcinoma cells
Method: (§1) Cell Culture: HCT116/VM46 cells were selected from human colon carcinoma HCT116 cell line for resistance to VM26 and MCF-7/ADR cells were selected from human breast carcinoma MCF-7 cell line for resistance to Adriamycin. […] The cell lines were grown in tissue culture flasks containing McCoy's 5A medium and 10% fetal bovine serum. Cells were maintained at 37°C in a humidified atmosphere containing 5% C02 and subcultured every 5 days.
(§2) Cytotoxic Assay: The cells were seeded in 96 well microtiter plates at 5x10^3 cells per well and allowed to grow for 24 hours at 37 °C. Cells were then incubated with decreasing amounts of antitumor agents: Adriamycin (100 µM, maximal concentration) or actinomycin D (17.6 ng/ml), for MCF-7 and HCT-116 cells, respectively. Chemosensitizers were added at variable concentrations ranging from 0.08 µM to […]. In parallel, verapamil was used as positive control at the same concentrations. After 48 hours of incubation, the cells were washed, fixed and stained with crystal violet. Absorbance was read by Molecular Devices' microtiter plate reader at the wavelength of 595nm. The IC50 value (50% inhibition of cell growth) was determined from relative survival rates resulted from two to three independent experiments. The term "fold resistance" was defined as the ratio of the IC50 for antitumor drug in the presence or absence of chemosensitizer in resistant cells divided by the IC50 for antitumor drug in its sensitive counterpart. This value provides an estimate of the apparent potency of each reversing agent in enhancing drug effect.

[2] = test system: MCF-7/ADR; experiment: Cytotoxic assay, MDR reversing effect with Adriamycin in resistant breast carcinoma cells
Method: as §1, §2

[3] = test system: HCT116; experiment: Cytotoxic assay, actinomycin D in sensitive colon carcinoma cells; settings: no chemosensitizer
Method: as §1
as §2, with “The term "fold resistance" was defined as the ratio of the IC50 for antitumor drug in the presence or absence of chemosensitizer in resistant cells divided by the IC50 for antitumor drug in its sensitive counterpart. This value provides an estimate of the apparent potency of each reversing agent in enhancing drug effect.” left out

[4] = ActD IC50 in HCT-116/VM46 with chemosensitizer 0.4 μM divided by ActD IC50 in sensitive HCT116
[5] = ADR IC50 in MCF-7/ADR with chemosensitizer 0.67 µM divided by ADR IC50 in sensitive MCF-7

CCN(CC)CCN(C(=O)c1cc(Cl)c(N)cc1Oc1ccc(C(F)(F)F)cc1[N+](=O)[O-])c1ccc(C(F)(F)F)cc1[N+](=O)[O-] [Ia]
Fold Resistance [1, 4]: 11.0

COc1cccc2c1C(=O)c1c(O)c3c(c(O)c1C2=O)C[C@@](O)(C(=O)CO)C[C@@H]3O[C@H]1C[C@H](N)[C@H](O)[C@H](C)O1 [ADR, Adriamycin]
IC50 ([2]; Homo sapiens, NCI/ADR-RES, 48 h, MCF-7/ADR cells, no chemosensitizer): 50 µM | Fold Resistance ([2]; MCF-7/ADR versus MCF-7, ADR, no chemosensitizer): 138.9

COc1ccc(CCN(C)CCCC(C#N)(c2ccc(OC)c(OC)c2)C(C)C)cc1OC (stereo not drawn) [Verapamil, verapamil]
Fold Resistance [1, 4]: 11.6 | Fold Resistance [2, 5]: 63.9

CCN(CC)CCN(C(=O)c1cc(Cl)c(N)cc1Oc1ccc([N+](=O)[O-])cc1)c1ccc([N+](=O)[O-])cc1 [Ii, 4-Amino-5-chloro-N-[2-(diethylamino)ethyl]-2-(4-nitrophenoxy)-N-(4-nitrophenyl)benzamide]
Fold Resistance [1, 4]: 9.8

Cc1c2oc3c(C)ccc(C(=O)N[C@@H]4C(=O)N[C@H](C(C)C)C(=O)N5CCC[C@H]5C(=O)N(C)CC(=O)N(C)[C@@H](C(C)C)C(=O)O[C@@H]4C)c3nc-2c(C(=O)N[C@@H]2C(=O)N[C@H](C(C)C)C(=O)N3CCC[C@H]3C(=O)N(C)CC(=O)N(C)[C@@H](C(C)C)C(=O)O[C@@H]2C)c(N)c1=O [ActD, Actinomycin D] (I: T[dV]P[Sar][NMeV] / II: T[dV]P[Sar][NMeV]; ester I:1-I:C, II:1-II:C; linker I:N-II:N via Actinocin(9to1))
ActD IC50 ([1]; HCT-116/VM46 cells, no chemosensitizer): 10 ng/mL | Fold Resistance ([1]; HCT-116/VM46 versus HCT116, ActD, no chemosensitizer): 20.0 | ActD IC50 [3]: 0.5 ng/mL

CCN(CC)CCNC(=O)c1cc(Cl)c(N)cc1OCCCc1ccccc1 [Ic, 4-Amino-5-chloro-N-[2-(diethylamino)ethyl]-2-[3-(phenyl)pronoxy]benzamide]
Fold Resistance [1, 4]: 9.8

C/C=C/C(=O)Nc1cc(OCCSc2ccccc2)c(C(=O)NCCN(CC)CC)cc1Cl [If, 5-Chloro-4-crotonylamino-N-[2-(diethylamino)ethyl]-2-[2-(phenylthio)ethoxy]benzamide]
Fold Resistance [1, 4]: 4.8 | Fold Resistance [2, 5]: 28.6
